Laboratory results reported in US20060014723A1, “Anti-parasitic uses of borinic acid complexes” (priority 2004, published 2006).

Test system: P. Berghei
Assay: In vivo efficacy mouse malaria model
Conditions: 1×/day
Protocol: Test compounds will be compared to chloroquine, artemisinin, mefloquine as follows: NMRI mice, SPF, females, […]
From a donor mouse with approximately 30% parasitemia, heparinized blood is taken and diluted in physiological saline to 10^8 parasitized erythrocytes per mL. An aliquot of 0.2 mL (=2×10^7 parasitized erythrocytes) of this suspension is injected intravenously (i.v.) into experimental groups of 4 mice.
Two-to-four hours post-infection, the experimental groups are treated with a single dose by the subcutaneous or the oral route. The compounds are prepared at an appropriate concentration, as a solution or suspension containing 3% ethanol and 7% Tween 80 or in SSV (standard suspending vehicle): […]
Twenty-four hours after the last treatment ([…]) blood smears from all animals are prepared and stained with Giemsa. Parasitemia is determined microscopically by counting 400 red blood cells (“rbcs”), for low parasitemias (<1%) up to 4,000 rbc's have to be counted. The difference between the mean value of the control group (taken as 100%) and those of the experimental groups is calculated and expressed as % Reduction where: [formula]
Additional smears will be taken on day 5 and day 6; and parasitemia will be determined and the activity calculated. Survival time (in days) is recorded, and the mean survival time is calculated. Adverse effects are recorded. Four mice/compound and a minimum of 12 mice/study (vehicle and positive controls run concurrently) are used.

SMILES: Fc1cccc(B(Oc2cccc3cccnc23)c2ccc(Cl)cc2)c1 [Compound 11, (4-Chlorophenyl)(3-fluorophenyl) borinic acid quinolin-8-yl ester]
- % of Activity (4 × 30 mg/kg, s.c.): 42.46%
- Mean Survival (4 × 30 mg/kg, s.c.): 19.7 days
- Parasitized RBC over 100 % of Control (4 × 30 mg/kg, s.c.): 57.54%
- Parasitized RBC over 100 Mean (4 × 30 mg/kg, s.c.): 14.3
- % of Activity (4 × 100 mg/kg, p.o.): 58.22%
- Mean Survival (4 × 100 mg/kg, p.o.): 15.0 days
- Parasitized RBC over 100 % of Control (4 × 100 mg/kg, p.o.): 41.78%
- Parasitized RBC over 100 Mean (4 × 100 mg/kg, p.o.): 10.4
